Experiment [1] has as its system HCV replicon genotype 1b. Description: HCV replicon assay, genotype 1b (cell ELISA for NS3/4A). The format is cell-based, hepatitis C virus. In short, it runs like this: (§1)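 Readout is NS3/4A protein level from an antibody-based cell ELISA, serving as an indirect measure of replicon RNA; IC50 fitted with a four-parameter function relative to DMSO control. Replicon cells, kept under G418 beforehand, were plated with serial compound dilutions minus G418 for 96 hours.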

For experiment [2], the system named is HCV replicon genotype 1a. Briefly: HCV replicon assay, genotype 1a (cell ELISA for NS3/4A). It counts as cell-based, hepatitis C virus. In short, it runs like this: as §1
The mark [3] stands for this setting: Hepatitis C virus, 96 h, read-out: 1b IC50 (nM), HCV genotype 1b replicon cells, 96 hours incubation, NS3/4A ELISA readout, % of DMSO control.
Where [4] appears, read: Hepatitis C virus, 96 h, read-out: 1a IC50 (nM), HCV genotype 1a replicon cells, 96 hours incubation, NS3/4A ELISA readout, % of DMSO control.
[5] abbreviates: read-out: 1b IC50, HCV genotype 1b replicon cells, 96 hours incubation, NS3/4A ELISA readout, % of DMSO control.
Setting [6] is: read-out: 1a IC50, HCV genotype 1a replicon cells, 96 hours incubation, NS3/4A ELISA readout, % of DMSO control.

Where two headings read alike, the source gives them in different places.

`CNC(=O)c1c(-c2ccc(F)cc2)oc2cc(N(C)S(C)(=O)=O)c([C@H]3CCCN(C(=O)c4cc5cccc(F)c5o4)C3)cc12` [Example 91, (R)-5-(1-(7-fluorobenzofuran-2-carbonyl)piperidin-3-yl)-2-(4-fluorophenyl)-N-methyl-6-(N-methylmethylsulfonamido)benzofuran-3-carboxamide]: the IC50 in experiment [1] (setting [3]) turned out to be 62.6 nM; in experiment [2] (setting [4]), 180 nM.

In the case of `CNC(=O)c1c(-c2ccc(F)cc2)oc2cc(N(C)S(C)(=O)=O)c([C@@H]3CCCN(c4nc5c(F)cccc5[nH]4)C3)cc12` (single isomer, unassigned) [Example 55, 5-(1-(4-fluoro-1H-benzo[d]imidazol-2-yl)piperidin-3-yl)-2-(4-fluorophenyl)-N-methyl-6-(N-methylmethylsulfonamido)benzofuran-3-carboxamide], the IC50 came out at 3.63 nM in experiment [1] (setting [5]) and 5.65 nM in experiment [2] (setting [6]).

As for `CNC(=O)c1c(-c2ccc(F)cc2)oc2cc(N(C)S(C)(=O)=O)c([C@H]3CCCN(S(=O)(=O)c4ccccc4C)C3)cc12` [Example 128, 2-(4-fluorophenyl)-N-methyl-6-[methyl(methylsulfonyl)amino]-5-{(3R)-1-[(2-methylphenyl)sulfonyl]piperidin-3-yl}-1-benzofuran-3-carboxamide], the IC50 in experiment [1] (setting [3]) is 24.2 nM; in experiment [2] (setting [4]) it was 34.2 nM.

On to `CNC(=O)c1c(-c2ccc(F)cc2)oc2cc(N(C)S(C)(=O)=O)c([C@@H]3CCCN(S(=O)(=O)c4cccc5nonc45)C3)cc12` [Example 120, 5-[(3S)-1-(2,1,3-benzoxadiazol-4-ylsulfonyl)piperidin-3-yl]-2-(4-fluorophenyl)-N-methyl-6-[methyl(methylsulfonyl)amino]-1-benzofuran-3-carboxamide], for which the figures for the IC50 in experiment [1] (setting [3]) and in experiment [2] (setting [4]) were 8.37 nM and 22.4 nM, respectively.

Consider `CNC(=O)c1c(-c2ccc(F)cc2)oc2cc(N(C)S(C)(=O)=O)c([C@@H]3CCCN(c4nc5c(F)cccc5o4)C3)cc12` (single isomer, unassigned) [Example 49, 5-(1-(4-fluorobenzo[d]oxazol-2-yl)piperidin-3-yl)-2-(4-fluorophenyl)-N-methyl-6-(N-methylmethylsulfonamido)benzofuran-3-carboxamide], for which the values for the IC50 in experiment [1] (setting [5]) and in experiment [2] (setting [6]) were 7.44 nM and 5.76 nM, respectively.

Consider `CNC(=O)c1c(-c2ccc(F)cc2)oc2cc(N(C)S(C)(=O)=O)c([C@H]3CCCN(S(=O)(=O)Cc4ccccc4F)C3)cc12` [Example 81, 5-{(3R)-1-[(2-fluorobenzyl)sulfonyl]piperidin-3-yl}-2-(4-fluorophenyl)-N-methyl-6-[methyl(methylsulfonyl)amino]-1-benzofuran-3-carboxamide], for which the IC50 in experiment [1] (setting [3]) came to 11.6 nM; in experiment [2] (setting [4]) it was 14.1 nM.

Take `CNC(=O)c1c(-c2ccc(F)cc2)oc2cc(N(C)S(C)(=O)=O)c([C@H]3CCCN(C(=O)c4cc5c(F)cccc5[nH]4)C3)cc12` [Example 88, 5-{(3R)-1-[(4-fluoro-1H-indol-2-yl)carbonyl]piperidin-3-yl}-2-(4-fluorophenyl)-N-methyl-6-[methyl(methylsulfonyl)amino]-1-benzofuran-3-carboxamide]: the IC50 in experiment [1] (setting [3]) worked out at 38.7 nM; in experiment [2] (setting [4]), 70.7 nM.

On to `CNC(=O)c1c(-c2ccc(F)cc2)oc2cc(N(C)S(C)(=O)=O)c([C@H]3CCCN(C(=O)c4n[nH]c(=O)c5ccccc45)C3)cc12` [Example 97, 2-(4-fluorophenyl)-N-methyl-6-[methyl(methylsulfonyl)amino]-5-{(3R)-1-[(4-oxo-3,4-dihydrophthalazin-1-yl)carbonyl]piperidin-3-yl}-1-benzofuran-3-carboxamide], for which the results for the IC50 in experiment [1] (setting [3]) and in experiment [2] (setting [4]) were 470 nM and 336 nM, respectively.

Consider `CNC(=O)c1c(-c2ccc(F)cc2)oc2cc(N(C)S(C)(=O)=O)c([C@@H]3CCCN(S(=O)(=O)c4ccccc4F)C3)cc12` [Example 119, 2-(4-fluorophenyl)-5-{(3S)-1-[(2-fluorophenyl)sulfonyl]piperidin-3-yl}-N-methyl-6-[methyl(methylsulfonyl)amino]-1-benzofuran-3-carboxamide], for which the IC50 in experiment [1] (setting [3]) came to 10.9 nM; in experiment [2] (setting [4]) it was 24.5 nM.

For the compound `CNC(=O)c1c(-c2ccc(F)cc2)oc2cc(N(C)S(C)(=O)=O)c([C@@H]3CCCN(C(=O)c4nc5ccccc5s4)C3)cc12` [Example 69, 5-[1-(1,3-benzothiazol-2-ylcarbonyl)piperidin-3-yl]-2-(4-fluorophenyl)-N-methyl-6-[methyl(methylsulfonyl)amino]-1-benzofuran-3-carboxamide], the figures for the IC50 in experiment [1] (setting [3]) and in experiment [2] (setting [4]) were 22.8 nM and 74.4 nM, respectively.

With `CNC(=O)c1c(-c2ccc(F)cc2)oc2cc(N(C)S(C)(=O)=O)c([C@@H]3CCCN(C(=O)C=C(C)C)C3)cc12` [Example 63, 2-(4-fluorophenyl)-N-methyl-5-[1-(3-methylbut-2-enoyl)piperidin-3-yl]-6-[methyl(methylsulfonyl)amino]-1-benzofuran-3-carboxamide], the IC50 was determined as 68.1 nM in experiment [1] (setting [3]) and 156 nM in experiment [2] (setting [4]).

For the compound `CNC(=O)c1c(-c2ccc(F)cc2)oc2cc(N(C)S(C)(=O)=O)c([C@H]3CCCN(S(=O)(=O)Cc4ccc(F)c(F)c4)C3)cc12` [Example 84, 5-{(3R)-1-[(3,4-difluorobenzyl)sulfonyl]piperidin-3-yl}-2-(4-fluorophenyl)-N-methyl-6-[methyl(methylsulfonyl)amino]-1-benzofuran-3-carboxamide], the IC50 in experiment [1] (setting [3]) is 3.04 nM; in experiment [2] (setting [4]), 2.77 nM.

With `CNC(=O)c1c(-c2ccc(F)cc2)oc2cc(N(C)S(C)(=O)=O)c([C@H]3CCCN(C(=O)c4cc5cccc(F)c5[nH]4)C3)cc12` [Example 31, (R)-5-(1-(7-fluoro-1H-indole-2-carbonyl)piperidin-3-yl)-2-(4-fluorophenyl)-N-methyl-6-(N-methylmethylsulfonamido)benzofuran-3-carboxamide], the IC50 in experiment [1] (setting [3]) came to 9.38 nM; in experiment [2] (setting [4]), 17.1 nM.

On to `CNC(=O)c1c(-c2ccc(F)cc2)oc2cc(N(C)S(C)(=O)=O)c([C@H]3CCCN(C(=O)c4c[nH]c5cc(F)ccc45)C3)cc12` [Example 102, 5-{(3R)-1-[(6-fluoro-1H-indol-3-yl)carbonyl]piperidin-3-yl}-2-(4-fluorophenyl)-N-methyl-6-[methyl(methylsulfonyl)amino]-1-benzofuran-3-carboxamide], for which the IC50 in experiment [1] (setting [3]) came out at 295 nM; in experiment [2] (setting [4]) it was 345 nM.

Consider `CNC(=O)c1c(-c2ccc(F)cc2)oc2cc(N(C)S(C)(=O)=O)c([C@@H]3CCCN(S(=O)(=O)c4ccccc4)C3)cc12` [Example 117, 2-(4-fluorophenyl)-N-methyl-6-[methyl(methylsulfonyl)amino]-5-[(3S)-1-(phenylsulfonyl)piperidin-3-yl]-1-benzofuran-3-carboxamide], for which the IC50 in experiment [1] (setting [3]) worked out at 9.37 nM; in experiment [2] (setting [4]), 32.3 nM.

Regarding `CNC(=O)c1c(-c2ccc(F)cc2)oc2cc(N(C)S(C)(=O)=O)c([C@@H]3CCCN(c4nc5c(C#N)cccc5o4)C3)cc12` [Example 5, (S)-5-(1-(4-cyanobenzo[d]oxazol-2-yl)piperidin-3-yl)-2-(4-fluorophenyl)-N-methyl-6-(N-methylmethylsulfonamido)benzofuran-3-carboxamide], the IC50 was determined as 19.3 nM in experiment [1] (setting [3]) and 53.7 nM in experiment [2] (setting [4]).

With `CNC(=O)c1c(-c2ccc(F)cc2)oc2cc(N(C)S(C)(=O)=O)c([C@H]3CCCN(S(=O)(=O)c4ccc(F)cc4)C3)cc12` [Example 131, 2-(4-fluorophenyl)-5-{(3R)-1-[(4-fluorophenyl)sulfonyl]piperidin-3-yl}-N-methyl-6-[methyl(methylsulfonyl)amino]-1-benzofuran-3-carboxamide], the IC50 in experiment [1] (setting [3]) came to 88.9 nM; in experiment [2] (setting [4]), 176 nM.

As to `CNC(=O)c1c(-c2ccc(F)cc2)oc2cc(N(C)S(C)(=O)=O)c([C@@H]3CCCN(C(=O)c4cc5ccccc5[nH]4)C3)cc12` (single isomer, unassigned) [Example 22, 5-(1-(1H-indole-2-carbonyl)piperidin-3-yl)-2-(4-fluorophenyl)-N-methyl-6-(N-methylmethylsulfonamido)benzofuran-3-carboxamide], the IC50 in experiment [1] (setting [5]) was 18.8 nM; in experiment [2] (setting [6]), 40.8 nM.

Take `CNC(=O)c1c(-c2ccc(F)cc2)oc2cc(N(C)S(C)(=O)=O)c([C@@H]3CCCN(C(=O)c4[nH]c5c(F)cccc5c4C)C3)cc12` [Example 37, (S)-5-(1-(7-fluoro-3-methyl-1H-indole-2-carbonyl)piperidin-3-yl)-2-(4-fluorophenyl)-N-methyl-6-(N-methylmethylsulfonamido)benzofuran-3-carboxamide]: the IC50 in experiment [1] (setting [3]) turned out to be 92.8 nM; in experiment [2] (setting [4]), 162 nM.

As for `CNC(=O)c1c(-c2ccc(F)cc2)oc2cc(N(C)S(C)(=O)=O)c([C@H]3CCCN(C(=O)c4nn(C)c(=O)c5ccccc45)C3)cc12` [Example 96, 2-(4-fluorophenyl)-N-methyl-6-[methyl(methylsulfonyl)amino]-5-{(3R)-1-[(3-methyl-4-oxo-3,4-dihydrophthalazin-1-yl)carbonyl]piperidin-3-yl}-1-benzofuran-3-carboxamide], the IC50 in experiment [1] (setting [3]) is 219 nM; in experiment [2] (setting [4]), 423 nM.

Regarding `CNC(=O)c1c(-c2ccc(F)cc2)oc2cc(N(C)S(C)(=O)=O)c([C@@H]3CCCN(C(=O)c4ccc(F)cc4)C3)cc12` (single isomer, unassigned) [Example 20, 5-(1-(4-fluorobenzoyl)piperidin-3-yl)-2-(4-fluorophenyl)-N-methyl-6-(N-methylmethylsulfonamido)benzofuran-3-carboxamide], the IC50 in experiment [1] (setting [5]) was 46.9 nM; in experiment [2] (setting [6]), 48 nM.

These data come from US9549921B2, “Heterocyclic compounds and methods of use thereof for the treatment of hepatitis C” (priority 2014, dated 2017).
